The nature of test [1]: Difference in melting temperature (Tm) between the modified DNA/RNA duplex and the unmodified wild type (WT) duplex per modification at 52.3 degree Celsius (5'-TTTTtCTCTCTCTCT-3'). The class given is functional.
A short description of test [2]: Difference in melting temperature (Tm) between the modified DNA/RNA duplex and the unmodified wild type (WT) duplex per modification at 52.3 degree Celsius (5-tttttC*tc*tc*tc*tc*T-3). The format is functional.
The nature of test [3]: Difference in melting temperature (Tm) between the modified DNA/RNA duplex and the unmodified wild type (WT) duplex per modification at 48 degree Celsius (5'-GCGttttttttttGCG-3'). The format is functional.
A short description of test [4]: Difference in melting temperature (Tm) between the modified DNA/RNA duplex and the unmodified wild type (WT) duplex per modification at 52.3 degree Celsius (5'-tttttctctctctT-3'). The format is functional.
Test [5] in a line: Difference in melting temperature (Tm) between the modified DNA/RNA duplex and the unmodified wild type (WT) duplex per modification at 63.9 degree Celsius (5'-CTCGTACCtTTCCGGTCC-3'). The format is functional.
Test [6] is described as follows: Difference in melting temperature (Tm) between the modified DNA/RNA duplex and the unmodified wild type (WT) duplex per modification at 63.9 degree Celsius (5-ctcGtacctttccGGtcC-3. The format is functional.
A short description of test [7]: Stability against degradation by 3'-exonucleases for the sequence 5'-d(TCC AGG TGT CCG TTT C)-3' in 10% heat-activated fetal calf serum (FCS). The class given is functional.
Test [8] in a line: Effect of compound on the nuclease resistance of 5'-d(TCC AGG TGT CCG TTT C)-3' in 10% heat-activated fetal calf serum (FCS) expressed as t1/2. The format is functional.
Test [9] is described as follows: Effect of compound on the nuclease resistance of wild type 5'-d(TCC AGG TGT CCG TTT C)-3' in 10% heat-activated fetal calf serum (FCS) expressed as t1/2. The class given is functional.
The nature of test [10]: Difference in melting temperature (Tm) between the modified DNA/RNA duplex and the unmodified wild type (WT) duplex per modification at 61.8 degree Celsius (5'-tCCAGGtGtCCGCAtC-3'). The format is functional.
A short description of test [11]: Ratio of effect of compound on the nuclease resistance of full length oligonucleotide to that of wild type in 10% heat-activated fetal calf serum (FCS). The format is functional.
Test [12] is described as follows: Difference in melting temperature (Tm) between the modified DNA/RNA duplex and the unmodified wild type (WT) duplex per modification at 61.7 degree Celsius (5'-CTCGTACttttCCGGTCC-3'). The class given is functional.
The nature of test [13]: Melting temperature (Tm) of the modified DNA/RNA duplex at 48 degree Celsius (5'-GCGttttttttttGCG-3').
A short description of test [14]: Melting temperature (Tm) of the modified DNA/RNA duplex at 48 degree Celsius (5'-GCGtttttttttGCG-3'); No cooperative melting observed.
A short description of test [15]: Difference in melting temperature (Tm) between the modified DNA/RNA duplex and the unmodified wild type (WT) duplex per modification at 52.3 degree Celsius (5-tttttc*tc*tc*tc*tc*T-3). The class given is functional.

For `COCCOCCO[C@H]1[C@H](CO)[C@@H](O)C[C@@H]1n1cc(C)c(=O)[nH]c1=O`, the ΔTm in [1] is -1.8; in test [2], -1.9.
With `Cc1cn([C@H]2C[C@H](O)[C@@H](CO)O2)c(=O)[nH]c1=O`, the ΔTm was determined as 0.25 in [3]; 0.4 in test [4]; 0.2 in [5]; 0.3 in test [6]; 2.5 in [7].
On to `Cc1cn([C@H]2C[C@H](O)[C@@H](CO)[C@@H]2OCCCCN)c(=O)[nH]c1=O`, for which the T1/2 is > 48 h in test [8] and 2 h in [9]. The ΔTm is -1.9 in test [3], -1.1 in test [1], -1.4 in test [10] and -1.8 in test [5]. Further, the Ratio in test [11] is > 24.
Take `CO[C@@H]1[C@H](O)[C@@H](CO)C[C@H]1n1cc(C)c(=O)[nH]c1=O`: the ΔTm was -1 in [3], 1.1 in [1], -0.7 in test [12] and -1.9 in [5].
As a reminder, the Tm is the temperature at the midpoint of the melting transition. As for `Cc1cn([C@H]2C[C@H](O)[C@@H](CO)[C@@H]2OCCCc2ccccc2)c(=O)[nH]c1=O`, the figures for the T1/2 in test [8] and in [9] were > 48 h and 2 h, respectively. For the same molecule, the ΔTm in [1] was -4; in test [12], -1.7; in test [10], -2.8; in [5], -2.8. Also, in test [11], the Ratio is > 24. The Tm in test [13] and in test [14] was < 20 °C in each case.
On to `CO[C@H]1[C@H](CO)[C@@H](O)C[C@@H]1n1cc(C)c(=O)[nH]c1=O`, for which the values for the T1/2 in test [8] and in test [9] were 20 h and 2 h, respectively. For the same molecule, the ΔTm in test [3] was -0.9; in [1] it was -2; in test [12], -0.7; in test [10], -1.3; in test [5], 0.2. In [11], the Ratio was found to be 10.
For `Cc1cn([C@H]2C[C@H](O)[C@@H](CO)[C@@H]2O)c(=O)[nH]c1=O`, the figures for the T1/2 in test [8] and in test [9] were 14 h and 2 h, respectively. Moreover, the ΔTm in test [3] is 0.8; in test [1], -0.8; in test [15], 0.4; in test [12], 0.2; in test [10] it was -0.4. The Ratio in [11] stood at 7.
Regarding `COCCOCCOCCO[C@@H]1[C@H](O)[C@@H](CO)C[C@H]1n1cc(C)c(=O)[nH]c1=O`, the ΔTm in test [1] is 0.2; in test [12], -2.6; in test [10], -1.1; in test [5] it was -2.9. For the same molecule, the Tm in test [13] was < 20 °C.
